Measured values published in ChEMBL document CHEMBL2074504, “Inhibition of P-glycoprotein-mediated drug transport: A unifying mechanism to explain the interaction between digoxin and quinidine [seecomments]” (Circulation, 1999).

How the values were obtained:
[1] = biological target: ATP-dependent translocase ABCB1 (Homo sapiens, UniProt P08183); experiment: TP_TRANSPORTER: transepithelial transport (basal to apical) in Caco-2 cells; format: functional, cell-based
[2] = biological target: T1, ATP-dependent translocase ABCB1 (Mus musculus, UniProt P21447); experiment: TP_TRANSPORTER: increase in kidney concentration in mdr1a(-/-) mouse; format: functional, organism-based; conditions: in vivo
T1 sequence (P21447 whole entry): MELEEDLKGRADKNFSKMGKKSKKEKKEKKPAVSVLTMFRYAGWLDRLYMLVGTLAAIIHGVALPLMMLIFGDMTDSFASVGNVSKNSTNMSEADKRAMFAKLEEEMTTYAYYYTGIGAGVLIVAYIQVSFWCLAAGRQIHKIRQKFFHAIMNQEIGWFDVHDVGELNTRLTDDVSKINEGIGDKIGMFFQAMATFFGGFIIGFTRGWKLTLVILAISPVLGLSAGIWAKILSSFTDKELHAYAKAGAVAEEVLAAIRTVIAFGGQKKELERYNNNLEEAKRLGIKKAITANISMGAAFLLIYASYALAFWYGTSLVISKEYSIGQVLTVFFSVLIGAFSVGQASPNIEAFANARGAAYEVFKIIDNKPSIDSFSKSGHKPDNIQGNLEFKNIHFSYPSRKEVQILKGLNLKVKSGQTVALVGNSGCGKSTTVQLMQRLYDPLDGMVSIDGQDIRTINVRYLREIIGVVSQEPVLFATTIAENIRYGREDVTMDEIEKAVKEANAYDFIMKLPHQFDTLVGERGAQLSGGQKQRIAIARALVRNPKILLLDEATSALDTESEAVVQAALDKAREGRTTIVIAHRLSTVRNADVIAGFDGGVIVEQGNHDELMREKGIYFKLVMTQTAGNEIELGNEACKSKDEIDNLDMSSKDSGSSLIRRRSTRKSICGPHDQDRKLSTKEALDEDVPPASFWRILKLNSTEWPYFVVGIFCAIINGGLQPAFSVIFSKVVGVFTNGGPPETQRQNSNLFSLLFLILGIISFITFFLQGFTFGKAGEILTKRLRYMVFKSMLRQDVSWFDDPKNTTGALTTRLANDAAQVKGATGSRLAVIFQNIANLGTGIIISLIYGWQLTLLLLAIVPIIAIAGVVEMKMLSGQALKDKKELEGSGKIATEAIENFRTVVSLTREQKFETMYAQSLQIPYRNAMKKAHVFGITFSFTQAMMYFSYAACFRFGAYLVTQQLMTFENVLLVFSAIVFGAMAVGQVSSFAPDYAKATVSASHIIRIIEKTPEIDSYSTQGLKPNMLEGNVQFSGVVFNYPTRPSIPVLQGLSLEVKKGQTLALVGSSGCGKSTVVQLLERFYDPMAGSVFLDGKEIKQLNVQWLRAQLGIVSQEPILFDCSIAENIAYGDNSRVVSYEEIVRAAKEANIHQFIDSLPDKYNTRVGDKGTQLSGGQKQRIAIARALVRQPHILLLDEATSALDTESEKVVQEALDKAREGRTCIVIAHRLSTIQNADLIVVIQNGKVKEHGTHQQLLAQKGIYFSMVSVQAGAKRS

[3] = biological target: T1, ATP-dependent translocase ABCB1; experiment: TP_TRANSPORTER: increase in lung concentration in mdr1a(-/-) mouse; format: functional, organism-based; conditions: in vivo
[4] = biological target: T1, ATP-dependent translocase ABCB1; experiment: TP_TRANSPORTER: increase in small intestine concentration in mdr1a(-/-) mouse; format: functional, organism-based; conditions: in vivo
[5] = biological target: T1, ATP-dependent translocase ABCB1; experiment: TP_TRANSPORTER: increase in spleen concentration in mdr1a(-/-) mouse; format: functional, organism-based; conditions: in vivo
[6] = biological target: T1, ATP-dependent translocase ABCB1; experiment: TP_TRANSPORTER: increase in plasma concentration in mdr1a(-/-) mouse; format: functional, organism-based; conditions: in vivo
[7] = biological target: T1, ATP-dependent translocase ABCB1; experiment: TP_TRANSPORTER: increase in liver concentration in mdr1a(-/-) mouse; format: functional, organism-based; conditions: in vivo
[8] = biological target: T1, ATP-dependent translocase ABCB1; experiment: TP_TRANSPORTER: increase in brain concentration in mdr1a(-/-) mouse; format: functional, organism-based; conditions: in vivo

Measured: Activity

ATP-dependent translocase ABCB1 (Homo sapiens, UniProt P08183), sequence (P08183 whole entry): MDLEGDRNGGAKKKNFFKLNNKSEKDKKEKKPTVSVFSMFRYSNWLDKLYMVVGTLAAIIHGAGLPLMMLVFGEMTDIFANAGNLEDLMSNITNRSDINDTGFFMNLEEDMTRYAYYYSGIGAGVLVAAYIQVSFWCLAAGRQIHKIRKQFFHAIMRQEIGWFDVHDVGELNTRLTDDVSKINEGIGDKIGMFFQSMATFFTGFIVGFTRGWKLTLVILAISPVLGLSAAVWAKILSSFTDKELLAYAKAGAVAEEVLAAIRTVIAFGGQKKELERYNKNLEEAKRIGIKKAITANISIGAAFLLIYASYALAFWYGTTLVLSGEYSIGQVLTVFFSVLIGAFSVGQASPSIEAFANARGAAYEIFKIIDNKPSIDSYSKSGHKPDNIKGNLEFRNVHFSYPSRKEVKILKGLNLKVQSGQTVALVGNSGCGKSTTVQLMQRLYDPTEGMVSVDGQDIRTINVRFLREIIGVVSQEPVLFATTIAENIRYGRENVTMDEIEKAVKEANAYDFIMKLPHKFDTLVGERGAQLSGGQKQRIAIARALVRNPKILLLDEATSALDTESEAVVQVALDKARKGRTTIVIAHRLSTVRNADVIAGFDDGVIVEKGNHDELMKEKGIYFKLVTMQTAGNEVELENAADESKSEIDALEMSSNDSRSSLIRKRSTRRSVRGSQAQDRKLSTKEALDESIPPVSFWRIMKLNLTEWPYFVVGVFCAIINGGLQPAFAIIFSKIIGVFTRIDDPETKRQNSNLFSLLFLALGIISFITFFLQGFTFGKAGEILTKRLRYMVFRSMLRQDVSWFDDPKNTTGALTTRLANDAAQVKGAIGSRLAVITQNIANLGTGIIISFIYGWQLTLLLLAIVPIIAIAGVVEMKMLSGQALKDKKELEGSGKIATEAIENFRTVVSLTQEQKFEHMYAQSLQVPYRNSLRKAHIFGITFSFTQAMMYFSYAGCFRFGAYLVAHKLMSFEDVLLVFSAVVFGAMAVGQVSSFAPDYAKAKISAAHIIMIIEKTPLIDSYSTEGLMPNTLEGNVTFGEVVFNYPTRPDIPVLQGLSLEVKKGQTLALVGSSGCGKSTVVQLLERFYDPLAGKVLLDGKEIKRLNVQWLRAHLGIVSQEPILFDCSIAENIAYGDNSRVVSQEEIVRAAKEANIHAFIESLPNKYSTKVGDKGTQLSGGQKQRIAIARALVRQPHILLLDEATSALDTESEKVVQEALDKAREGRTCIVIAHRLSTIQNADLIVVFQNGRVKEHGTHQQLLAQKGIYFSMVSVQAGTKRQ

C[C@H]1O[C@@H](O[C@H]2[C@@H](O)C[C@H](O[C@H]3[C@@H](O)C[C@H](O[C@H]4CC[C@@]5(C)[C@H](CC[C@@H]6[C@@H]5C[C@@H](O)[C@]5(C)[C@@H](C7=CC(=O)OC7)CC[C@]65O)C4)O[C@@H]3C)O[C@@H]2C)C[C@H](O)[C@@H]1O [DIGOXIN]
substrate [+]: [1]

C=C[C@H]1C[N@@]2CC[C@H]1C[C@@H]2[C@@H](O)c1ccnc2ccc(OC)cc12 [QUINIDINE]
not listed: [1]
substrate [+]: all other assays above
